Results published in US20090082470A1, “STAT3 INHIBITING COMPOSITIONS AND METHODS” (priority 2007, published 2009).

Tests used:
SV40 promoter = test: SV40 luciferase reporter (STAT3-independent); assay type: cell-based; conditions: 20 μM, 48h
Description: (§1) To screen the potential inhibitors that inhibit STAT3 's biological activity, we established Caov-3 cancer cell line that constitutively expresses active STAT3 with a stably integrated STAT3-dependent luciferase reporter construct, pLucTKS3. This construct contains multimerized STAT3 binding sites and its activation specifically depends on STAT3. We examined the effect of eight theoretical STAT3 inhibitors to inhibit STAT3-mediated production of luciferase.
(§2) According to embodiments illustrated by FIG. 3B, the clones stably transfected with pLucTKS3 STAT3-dependent luciferase reporter or SV40 luciferase reporter were treated with 20 μM of the STAT3 inhibitor for 48h and luciferase activity was measured.

[1] = tested on: LNCaP prostate cancer cell line; test: Anti-proliferative activity, MTS assay, LNCaP; assay type: cell-based; conditions: Homo sapiens, MTS assay, 2,000 cells/well, means of 2 experiments in triplicate
Description: (§3) MCF-7 breast cancer cells, a cell line with no constitutive activation of STAT3, were used as negative control. […] In addition, the anti-proliferative activities are directly proportional to the level of constitutively active STAT3 expression (Table 1).

STAT3 [2] = test: Electrophoretic mobility shift assay, STAT3 DNA binding; assay type: biochemical; conditions: 30 μM, 30 min, MDA-MB-435s cell nuclear extract
Description: (§4) The reaction mixtures were resolved on 8% polyacylamide gel and visualized with autoradiography.

STAT1 = target: T1, STAT1 (Homo sapiens, UniProt P42224); test: Electrophoretic mobility shift assay, STAT1 DNA binding; assay type: biochemical; conditions: 30 μM, MDA-MB-435s cell nuclear extract
T1 construct: endogenous in cells; host or cells: MDA-MB-435s nuclear extract
T1 sequence (P42224 1-750): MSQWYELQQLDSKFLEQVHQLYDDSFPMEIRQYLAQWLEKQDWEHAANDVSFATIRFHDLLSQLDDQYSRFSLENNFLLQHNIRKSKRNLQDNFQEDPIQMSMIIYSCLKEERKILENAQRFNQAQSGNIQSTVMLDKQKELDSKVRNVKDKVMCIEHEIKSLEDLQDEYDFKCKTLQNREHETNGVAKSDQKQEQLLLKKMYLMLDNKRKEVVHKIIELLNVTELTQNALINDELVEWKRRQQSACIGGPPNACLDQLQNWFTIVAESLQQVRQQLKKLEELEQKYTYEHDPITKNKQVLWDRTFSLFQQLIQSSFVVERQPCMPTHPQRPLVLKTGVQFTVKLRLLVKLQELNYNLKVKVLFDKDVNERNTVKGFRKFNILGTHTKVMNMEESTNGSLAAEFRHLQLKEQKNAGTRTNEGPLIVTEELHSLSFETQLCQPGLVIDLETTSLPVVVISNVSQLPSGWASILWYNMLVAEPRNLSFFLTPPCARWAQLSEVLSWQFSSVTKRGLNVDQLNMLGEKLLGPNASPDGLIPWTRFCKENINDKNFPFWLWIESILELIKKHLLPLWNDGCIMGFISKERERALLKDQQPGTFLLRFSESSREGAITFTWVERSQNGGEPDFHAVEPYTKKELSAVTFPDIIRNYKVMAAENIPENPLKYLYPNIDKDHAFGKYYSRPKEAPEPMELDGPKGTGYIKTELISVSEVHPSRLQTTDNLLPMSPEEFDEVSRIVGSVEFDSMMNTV
Description: as §4

cyclin D1 and Bcl-XL = test: Immunoblot of STAT3-regulated genes; assay type: cell-based; conditions: 20 μM and 30 μM
STAT3 [3] = test: STAT3 dimerization, co-immunoprecipitation of STAT3-FLAG and STAT3-HA; assay type: cell-based; conditions: MDA-MB-435s cells, 20 μM, 24h
Description: MDA-MB-435s cells were co-transfected with pCMV-STAT3-FLAG and pCMV-STAT3-HA plasmid constructs and immunoblot analyses were performed with anti-FLAG, anti-HA, and anti-STAT3, the results of which are shown in FIG. 5A. The cell lysates were then subjected to immunoprecipitation with an anti-FLAG or anti-HA antibody and immunoblot analyses were performed with anti-HA or anti-FLAG, respectively, the results of which are shown in FIG. 5B.
According to embodiments of experimental results shown in FIG. 5A, MDA-MB-435s cells were transfected with pCMV-STAT3-Flag and pCMV-STAT3-HA plasmid and the cell lysate was immunoblotted with anti-Flag, anti-HA, or anti-STAT3. According to embodiments shown in FIG. 5B, MDA-MB-435s cells were co-transfected with pCMV-STAT3-Flag and pCMV-STAT3-HA plasmids and were exposed to 20 μM of inhibitor for 24h, then cell lysate was immunoprecipitated with anti-HA or anti-Flag antibody, respectively and immunoblotted with HA, Flag, or STAT3 antibody. As shown in Lane 1 of FIG. 5B, no transfection was performed. In lane 2, untreated cells were transfected with pCMV-STAT3-Flag and pCMV-STAT3-HA plasmids.

[4] = tested on: DU 145 prostate cancer cell line; test: Anti-proliferative activity, MTS assay, DU 145; assay type: cell-based; conditions: Homo sapiens, MTS assay, 2,000 cells/well, means of 2 experiments in triplicate
Description: as §3

JAK2 = target: T2, JAK2 (Homo sapiens, UniProt O60674); test: Phosphorylation of JAK2; assay type: cell-based
T2 construct: endogenous in cells

STAT3 [5] = test: STAT3-dependent luciferase reporter (pLucTKS3) in Caov-3 cells; assay type: cell-based; conditions: 20 μM, 48h
Description: as §1, §2

[6] = tested on: MCF-7 breast cancer cell line; test: Anti-proliferative activity, MTS assay, MCF-7; assay type: cell-based
Description: as §3

AKT = test: Phosphorylation of AKT; assay type: cell-based
[7] = tested on: MCF-7 and MDA-MB-453 cancer cell lines and human skin fibroblasts (HSF); test: Apoptosis by FACS, cells lacking constitutively active STAT3; assay type: cell-based; conditions: 48 h, lack constitutively active STAT3
Description: (§5) According to embodiments of experimental data shown in FIG. 6A, the phosphorylation of STAT3 (Tyr705) in different cell lines: lane 1 with HSF, lane 2 with MCF-7, land 3 with MDA-MB-453, lane 4 with MDA-MB-231, lane 5 with MDA-MB-435s, and lane 6 with MDA-MB-468. According to embodiments shown in FIG. 6B, cell lines were treated with STAT3 inhibitor at concentrations as indicated for 48 h, and apoptotic cells were detected with FACS.

ERK½ = test: Phosphorylation of ERK½; assay type: cell-based
Src = target: T3, Src (Homo sapiens, UniProt P12931); test: Phosphorylation of Src; assay type: cell-based
T3 construct: endogenous in cells

[8] = tested on: PC3 prostate cancer cell line; test: Anti-proliferative activity, MTS assay, PC3; assay type: cell-based; conditions: MTS assay, 2,000 cells/well, means of 2 experiments in triplicate
Description: as §3

[9] = tested on: MDA-MB-468, MDA-MB-435s, and MDA-MB-231 cell lines; test: Apoptosis by FACS, cell lines with constitutively active STAT3; assay type: cell-based; conditions: 48 h
Description: as §5

STAT5 = test: Electrophoretic mobility shift assay, STAT5 DNA binding; assay type: biochemical; conditions: 30 μM, MDA-MB-435s cell nuclear extract
Description: as §4

T3 sequence (P12931 whole entry): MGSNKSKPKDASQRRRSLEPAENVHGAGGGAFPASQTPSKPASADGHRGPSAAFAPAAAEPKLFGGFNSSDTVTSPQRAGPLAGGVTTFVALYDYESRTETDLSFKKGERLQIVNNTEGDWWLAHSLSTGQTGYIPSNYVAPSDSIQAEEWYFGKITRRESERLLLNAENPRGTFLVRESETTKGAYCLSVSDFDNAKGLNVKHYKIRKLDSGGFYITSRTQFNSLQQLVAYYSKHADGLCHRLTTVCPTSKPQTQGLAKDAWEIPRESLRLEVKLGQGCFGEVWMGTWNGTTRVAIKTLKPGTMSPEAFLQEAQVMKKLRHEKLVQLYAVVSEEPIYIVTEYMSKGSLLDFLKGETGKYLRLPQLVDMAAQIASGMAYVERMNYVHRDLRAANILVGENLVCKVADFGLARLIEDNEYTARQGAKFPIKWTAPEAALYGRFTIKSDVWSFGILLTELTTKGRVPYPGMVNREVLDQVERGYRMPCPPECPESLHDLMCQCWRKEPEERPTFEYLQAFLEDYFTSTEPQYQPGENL
T2 sequence (O60674 whole entry): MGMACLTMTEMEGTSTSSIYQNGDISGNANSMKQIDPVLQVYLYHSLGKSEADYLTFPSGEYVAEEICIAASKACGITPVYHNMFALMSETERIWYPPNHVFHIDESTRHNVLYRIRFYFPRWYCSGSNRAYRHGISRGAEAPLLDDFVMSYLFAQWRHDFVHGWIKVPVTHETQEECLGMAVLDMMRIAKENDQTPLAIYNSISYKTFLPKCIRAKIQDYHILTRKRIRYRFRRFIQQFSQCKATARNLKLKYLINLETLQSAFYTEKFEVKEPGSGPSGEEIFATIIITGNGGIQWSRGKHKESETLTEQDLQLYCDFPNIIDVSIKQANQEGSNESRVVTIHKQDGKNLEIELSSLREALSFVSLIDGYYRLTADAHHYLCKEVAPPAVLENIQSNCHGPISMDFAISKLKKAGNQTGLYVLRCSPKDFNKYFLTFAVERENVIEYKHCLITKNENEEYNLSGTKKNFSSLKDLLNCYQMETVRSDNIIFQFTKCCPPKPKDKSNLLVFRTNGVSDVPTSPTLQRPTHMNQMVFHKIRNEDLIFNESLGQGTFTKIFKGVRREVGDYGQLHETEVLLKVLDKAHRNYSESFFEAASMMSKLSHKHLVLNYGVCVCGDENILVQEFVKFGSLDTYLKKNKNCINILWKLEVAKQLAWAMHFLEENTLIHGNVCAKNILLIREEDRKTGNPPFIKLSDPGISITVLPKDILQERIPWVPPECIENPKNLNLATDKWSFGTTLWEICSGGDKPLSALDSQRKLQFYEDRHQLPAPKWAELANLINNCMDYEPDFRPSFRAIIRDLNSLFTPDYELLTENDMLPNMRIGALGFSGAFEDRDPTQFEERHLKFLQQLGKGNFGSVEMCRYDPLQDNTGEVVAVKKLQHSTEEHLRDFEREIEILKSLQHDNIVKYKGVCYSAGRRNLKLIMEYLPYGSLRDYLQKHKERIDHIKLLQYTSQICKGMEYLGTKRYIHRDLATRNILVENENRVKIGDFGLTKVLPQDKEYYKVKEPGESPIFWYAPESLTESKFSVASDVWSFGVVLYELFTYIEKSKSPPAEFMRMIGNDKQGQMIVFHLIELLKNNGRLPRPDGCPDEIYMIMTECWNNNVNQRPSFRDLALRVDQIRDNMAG

- luciferase activity under control of the SV40 promoter (SV40 promoter): no significant difference
- IC50 [1]: 30.1 µM
- STAT3 DNA binding activity (STAT3 [2]): specifically blocked STAT3 DNA binding
- STAT1 DNA binding (STAT1): did not inhibit
- IC50 [4]: 12.2 µM
- phosphorylation of JAK2 (JAK2): did not inhibit
- IC50 ([6]; Homo sapiens, MCF7, MTS assay, 2,000 cells/well, no constitutive STAT3 activation): > 100 µM
- phosphorylation of Src (Src): did not inhibit
- IC50 [8]: 18.7 µM
- STAT5 DNA binding (STAT5): did not inhibit
SMILES: C[C@@H]1CC(=O)c2c(ccc3c2C(=O)c2cccc(O)c2C3=O)C1 [STA-21, deoxytetrangomycin]
- expression of STAT3-regulated genes cyclin D1 and Bcl-XL (cyclin D1 and Bcl-XL): inhibits the expression
- ability of STAT3-FLAG and STAT3-HA to dimerize (STAT3 [3]): significantly reduced
- reduction in luciferase activity, pLucTKS3 transfected cells (STAT3 [5]): ~6 fold
- anti-proliferative activity in MCF-7 cells (in words) ([6]; cells with no constitutive STAT3 activation): did not show any antiproliferative activity
- phosphorylation of AKT (AKT): did not inhibit
- increase in percentage of apoptotic cells [7]: 0.5-1.2 fold
- phosphorylation of ERK½ (ERK½): did not inhibit
- increase in percentage of apoptotic cells [9]: 5-30 fold
